# Measurements reported in the supplement of paper PMC10307832.
# Experiments:
# Test in all cases: relative viability (nuclei count vs DMSO), 5 days (fraction); higher = more cells survive
# [1] = tested on: NCI-H1355
# Procedure, shortened: (§1)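 Lung cancer cell lines were pin-tool dosed in 1536-well plates on the day after seeding, with either a lone drug or a fixed anchor-drug dose plus five library-drug doses (not always all listed) in √10 steps. Nuclei were counted on 4× images after 5 days. Relative viability is the ratio of treated-well to vehicle-well nuclei counts, with each value a median of duplicate plates.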
# [2] = tested on: NCI-H2170
# Procedure, shortened: as §1
# [3] = tested on: NCI-H3122
# Procedure, shortened: as §1
# [4] = tested on: NCI-H1651
# Procedure, shortened: as §1
# [5] = tested on: NCI-H2347
# Procedure, shortened: as §1
# [6] = tested on: SW 900
# Procedure, shortened: as §1
# [7] = tested on: NCI-H322M
# Procedure, shortened: as §1
# [8] = tested on: LCLC-103H
# Procedure, shortened: as §1
# [9] = tested on: NCI-H661
# Procedure, shortened: as §1
# [10] = tested on: NCI-H460
# Procedure, shortened: as §1
# [11] = tested on: NCI-H650
# Procedure, shortened: as §1
# [12] = tested on: LXF-289
# Procedure, shortened: as §1
# [13] = tested on: SK-MES-1
# Procedure, shortened: as §1
# [14] = tested on: RERF-LC-KJ
# Procedure, shortened: as §1
# [15] = tested on: NCI-H1563
# Procedure, shortened: as §1
# [16] = tested on: NCI-H596
# Procedure, shortened: as §1
# [17] = tested on: NCI-H1755
# Procedure, shortened: as §1
# [18] = tested on: NCI-H520
# Procedure, shortened: as §1
# [19] = tested on: NCI-H727
# Procedure, shortened: as §1
# [20] = tested on: PC-14
# Procedure, shortened: as §1
# [21] = tested on: NCI-H441
# Procedure, shortened: as §1
# [22] = tested on: NCI-H1915
# Procedure, shortened: as §1
structure (smiles),measurement,setting,value
O=C(O)c1ccc(-c2c[nH]c3ncc(-c4ccccc4)cc23)cc1C1CCCC1 + COc1cc2c(Oc3ccc(NC(=O)C4(C(=O)Nc5ccc(F)cc5)CC4)cc3F)ccnc2cc1OCCCN1CCOCC1 [Foretinib] (partner 0.25 µM),relative viability,[1]; first compound 0.04 µM,1.08
same,relative viability,[1]; first compound 0.1265 µM,0.992
same,relative viability,[1]; first compound 0.4 µM,0.957
same,relative viability,[1]; first compound 1.265 µM,0.622
same,relative viability,[2]; first compound 0.04 µM,0.994
same,relative viability,[2]; first compound 0.1265 µM,1
same,relative viability,[2]; first compound 0.4 µM,0.968
same,relative viability,[2]; first compound 1.265 µM,0.777
same,relative viability,[3]; first compound 0.04 µM,0.968
same,relative viability,[3]; first compound 0.1265 µM,0.913
same,relative viability,[3]; first compound 0.4 µM,0.891
same,relative viability,[3]; first compound 1.265 µM,0.87
same,relative viability,[4]; first compound 0.04 µM,0.786
same,relative viability,[4]; first compound 0.1265 µM,0.806
same,relative viability,[4]; first compound 0.4 µM,0.792
same,relative viability,[4]; first compound 1.265 µM,0.607
same,relative viability,[5]; first compound 0.04 µM,0.861
same,relative viability,[5]; first compound 0.1265 µM,0.783
same,relative viability,[5]; first compound 0.4 µM,1.01
same,relative viability,[5]; first compound 1.265 µM,0.803
same,relative viability,[6]; first compound 0.04 µM,0.921
same,relative viability,[6]; first compound 0.1265 µM,0.839
same,relative viability,[6]; first compound 0.4 µM,0.896
same,relative viability,[6]; first compound 1.265 µM,0.824
same,relative viability,[7]; first compound 0.04 µM,1.02
same,relative viability,[7]; first compound 0.1265 µM,1.03
same,relative viability,[7]; first compound 0.4 µM,0.993
same,relative viability,[7]; first compound 1.265 µM,0.824
same,relative viability,[8]; first compound 0.04 µM,0.702
same,relative viability,[8]; first compound 0.1265 µM,0.793
same,relative viability,[8]; first compound 0.4 µM,0.613
same,relative viability,[8]; first compound 1.265 µM,0.507
same,relative viability,[9]; first compound 0.04 µM,1
same,relative viability,[9]; first compound 0.4 µM,0.971
same,relative viability,[9]; first compound 1.265 µM,0.977
same,relative viability,[10]; first compound 0.04 µM,0.993
same,relative viability,[10]; first compound 0.1265 µM,1.14
same,relative viability,[10]; first compound 0.4 µM,0.962
same,relative viability,[10]; first compound 1.265 µM,0.917
same,relative viability,[11]; first compound 0.04 µM,1.13
same,relative viability,[11]; first compound 0.1265 µM,1.11
same,relative viability,[11]; first compound 0.4 µM,0.888
same,relative viability,[11]; first compound 1.265 µM,0.71
same,relative viability,[12]; first compound 0.04 µM,0.972
same,relative viability,[12]; first compound 0.1265 µM,0.939
same,relative viability,[12]; first compound 0.4 µM,0.867
same,relative viability,[12]; first compound 1.265 µM,0.543
same,relative viability,[13]; first compound 0.04 µM,0.963
same,relative viability,[13]; first compound 0.1265 µM,1.01
same,relative viability,[13]; first compound 0.4 µM,0.918
same,relative viability,[13]; first compound 1.265 µM,0.794
same,relative viability,[14]; first compound 0.04 µM,0.86
same,relative viability,[14]; first compound 0.1265 µM,0.865
same,relative viability,[14]; first compound 0.4 µM,0.933
same,relative viability,[14]; first compound 1.265 µM,0.837
same,relative viability,[15]; first compound 0.04 µM,0.924
same,relative viability,[15]; first compound 0.1265 µM,1.03
same,relative viability,[15]; first compound 0.4 µM,0.853
same,relative viability,[15]; first compound 1.265 µM,0.97
same,relative viability,[16]; first compound 0.04 µM,0.783
same,relative viability,[16]; first compound 0.1265 µM,0.79
same,relative viability,[16]; first compound 0.4 µM,0.919
same,relative viability,[16]; first compound 1.265 µM,0.999
same,relative viability,[17]; first compound 0.04 µM,0.913
same,relative viability,[17]; first compound 0.1265 µM,1.02
same,relative viability,[17]; first compound 0.4 µM,0.939
same,relative viability,[17]; first compound 1.265 µM,0.861
same,relative viability,[18]; first compound 0.04 µM,0.687
same,relative viability,[18]; first compound 0.1265 µM,0.923
same,relative viability,[18]; first compound 0.4 µM,0.78
same,relative viability,[18]; first compound 1.265 µM,0.717
same,relative viability,[19]; first compound 0.04 µM,1.2
same,relative viability,[19]; first compound 0.1265 µM,0.823
same,relative viability,[19]; first compound 0.4 µM,0.754
same,relative viability,[19]; first compound 1.265 µM,0.944
same,relative viability,[20]; first compound 0.04 µM,0.943
same,relative viability,[20]; first compound 0.1265 µM,0.958
same,relative viability,[20]; first compound 0.4 µM,1.01
same,relative viability,[20]; first compound 1.265 µM,0.941
same,relative viability,[21]; first compound 0.04 µM,1.14
same,relative viability,[21]; first compound 0.1265 µM,0.881
same,relative viability,[21]; first compound 0.4 µM,0.897
same,relative viability,[21]; first compound 1.265 µM,0.563
same,relative viability,[22]; first compound 0.04 µM,1.13
same,relative viability,[22]; first compound 0.1265 µM,1.11
same,relative viability,[22]; first compound 0.4 µM,1.03
same,relative viability,[22]; first compound 1.265 µM,0.783
